Consider seven compounds from US4764528A, “2,4-pentadienoic acid derivatives and platelet aggregation inhibitors containing the same” (Teruo Kabushiki Kaisha, priority 1986, dated 1988).

Like-named read-outs stand apart in the source and are kept apart here. Bounds are passed on as bounds.

Data set [1] relates to platelet aggregation. The data set can be described thus: Inhibition of platelet aggregation in rabbit platelet-rich plasma (Born's turbimetry). It is filed as cell-based. As to conditions: Oryctolagus cuniculus. Here is the method:
Using a syringe containing 3.8% sodium citrate solution (1 volume), 9 volumes of blood is drawn from the carotid artery of a rabbit. Said blood is centrifuged to give platelet-rich plasma (PRP: 7×10^5 /μl).
In a cuvette is placed 250 ul of said PRP, followed by incubation in a thermostat at 37° C. for 2 min. Then, 20 μl of physiological saline buffer solution of a 2,4-pentadienoic acid derivative to be tested is added, and the mixture is incubated for 3 min. A platelet-aggregation inducer, an arachidonic acid solution, a collagen solution or an ADP solution is then added, and platelet aggregation is measured by the Born's turbimetry (which is described, for example, in Journal of Physiology, vol. 168, p. 178 (1968)). 50% Inhibitory concentration of the platelet aggregation caused by arachidonic acid (60 μmol), collagen (10 μg/ml) or ADP (5 μmol) is shown in Table 5 in comparison with prostaglandin I2, aspirin or dipyridamol.
50% Inhibitory concentration as indicated in Table 5 means the concentration of a 2,4-pentadienoic acid derivative needed for inhibiting the platelet aggregation by 50% by the introduction of said 2,4-pentadienoic acid derivative, taking the platelet aggregation in the absence of 2,4-pentadienoic acid derivatives of the invention as 100%.

The conditions of data set [2]: unstable vinylether group in the molecule; cited from earlier work.
Setting [3] is: aggregation induced by ADP (5 μmol), rabbit PRP, 37° C., 3 min preincubation, read-out: Antiplatelet activity, 50% Inhibitory concentration, ADP.
Where [4] appears, read: aggregation induced by arachidonic acid (60 μmol), rabbit PRP, 37° C., 3 min preincubation, read-out: Antiplatelet activity, 50% Inhibitory concentration, Arachidonic acid.
The mark [5] stands for this setting: aggregation induced by collagen (10 μg/ml), rabbit PRP, 37° C., 3 min preincubation, read-out: Antiplatelet activity, 50% Inhibitory concentration, Collagen.

For `CCCCC[C@H](O)/C=C/[C@@H]1[C@H]2CC(/C=C/C=C/C(=O)O)=C[C@H]2C[C@H]1O` [Example 1, 3-(4-carboxy-trans, trans-1,3-butadienyl)-6-exo-(3α-hydroxy-trans-1-octenyl)-7-endo-hydroxybicyclo[3.3.0]oct-2-ene], the IC50 was 0.52 µM in data set [1] (setting [3]), 0.47 µM in data set [1] (setting [4]) and 0.32 µM in data set [1] (setting [5]).
With `O=C(O)/C=C/C=C/C1=C[C@H]2C[C@@H](O)[C@H](/C=C/[C@@H](O)C3CCCC3)[C@H]2C1` [Example 4], the IC50 in data set [1] (setting [3]) amounted to 0.39 µM; in data set [1] (setting [4]), 0.29 µM; in data set [1] (setting [5]), 0.23 µM.
For `CCCCC[C@H](O)/C=C/[C@@H]1[C@H]2CC(C/C=C/C=C/C(=O)O)=C[C@H]2C[C@H]1O` [Example 6, 3-(5-carboxy-trans, trans-2,4-pentadienyl)-6-exo-(3α-hydroxy-trans-1-octenyl)-7-endo-hydroxybicyclo[3.3.0]oct-2-ene], in that order: 0.7 µM, 0.82 µM and 0.5 µM.
Take `O=C(O)/C=C/C=C/CC1=C[C@H]2C[C@@H](O)[C@H](/C=C/[C@@H](O)C3CCCC3)[C@H]2C1` [Example 9]: the IC50 in data set [1] (setting [3]) turned out to be 1.4 µM; in data set [1] (setting [4]) it was 1.8 µM; in data set [1] (setting [5]), 1.1 µM.
For `CC(=O)Oc1ccccc1C(=O)O` [aspirin, reference compound], the IC50 in data set [1] (read-out: Antiplatelet activity, 50% Inhibitory concentration, ADP) is at least 1000 µM; in data set [1] (read-out: Antiplatelet activity, 50% Inhibitory concentration, Arachidonic acid), 17 µM; in data set [1] (read-out: Antiplatelet activity, 50% Inhibitory concentration, Collagen), 200 µM.
Take `OCCN(CCO)c1nc(N2CCCCC2)c2nc(N(CCO)CCO)nc(N3CCCCC3)c2n1` [dipyridamol, reference compound]: the IC50 was 470 µM in data set [1] (setting [3]) and at least 1000 µM in data set [1] (setting [4]).
In the case of `CCCCC[C@H](O)/C=C/[C@@H]1[C@H]2C/C(=C/CCCC(=O)O)O[C@H]2C[C@H]1O` [prostaglandin I2, reference compound], the results for the IC50 in data set [1] (setting [3]), in data set [1] (setting [4]) and in data set [1] (setting [5]) were 0.38 µM, 0.25 µM and 0.22 µM, respectively. In addition, the “half life in the living body” value in data set [2] is on record as “short”.
